Results published in ChEMBL document CHEMBL1130697, “C24 and C25 substituted marcfortine A derivatives” (Bioorg Med Chem Lett, 1998).
Activity calls are given as the source filed them. No cut-off for these calls is given here.

Tested on: Gerbillinae
Assay: Anthelmintic activity against immunosuppressed Mongolian gerblis(jirds) inoculated with Haemonchus contortus and Trichostrongylus colubriform; not active
Type: functional

| Compound | Activity |
| --- | --- |
| CN1C(=O)[C@@]23CCCCN2C[C@@]12C[C@@]1(C(=O)Nc4c1ccc1c4OCC4(CO4)C(C)(C)O1)C(C)(C)[C@H]2C3 (stereo not given in full) | inactive |
| CN1C(=O)[C@@]23CCCCN2C[C@@]12C[C@@]1(C(=O)Nc4c1ccc1c4OC=CC(C)(C)O1)C(C)(C)[C@H]2C3 | inactive |
| CN1C(=O)[C@]23C[C@@H]4C(C)(C)[C@@]5(C[C@@]41CN2CC[C@@]3(C)O)C(=O)Nc1c5ccc2c1OC=CC(C)(C)O2 | inactive |
| CN1C(=O)[C@@]23CCCCN2C[C@@]12C[C@@]1(C(=O)Nc4c1ccc1c4OCC(C)(O)C(C)(C)O1)C(C)(C)[C@H]2C3 (stereo not given in full) | inactive |
| CN1C(=O)[C@@]23CCCCN2C[C@@]12C[C@@]1(C(=O)Nc4c1ccc1c4OCC(O)C(C)(C)O1)C(C)(C)[C@H]2C3 (stereo not given in full) | inactive |
| CN1C(=O)[C@@]23CCCCN2C[C@@]12C[C@@]1(C(=O)Nc4c1ccc1c4OCC(=O)C(C)(C)O1)C(C)(C)[C@H]2C3 | inactive |
| C=C1COc2ccc3c(c2OC1)NC(=O)[C@@]31C[C@@]23CN4CCCC[C@]4(C[C@@H]2C1(C)C)C(=O)N3C | inactive |
| CN1C(=O)[C@@]23CCCCN2C[C@@]12C[C@@]1(C(=O)Nc4c1ccc(O)c4O)C(C)(C)[C@H]2C3 | inactive |
| CC1=COc2c(ccc3c2NC(=O)[C@@]32C[C@@]34CN5CCCC[C@]5(C[C@@H]3C2(C)C)C(=O)N4C)OC1(C)C | inactive |

Tested on: Gerbillinae
Assay: Anthelmintic activity against immunosuppressed Mongolian gerblis(jirds) inoculated with Haemonchus contortus and Trichostrongylus colubriform;found to be active
Type: functional

| Compound | Activity |
| --- | --- |
| C=C1COc2c(ccc3c2NC(=O)[C@@]32C[C@@]34CN5CCCC[C@]5(C[C@@H]3C2(C)C)C(=O)N4C)OC1(C)C | Active |
